# Molecular target: T1, Human CaV2.2 channels (Homo sapiens, UniProt Q00975)
# T1 construct: expressed in transfected cells; host or cells: HEK293
# Assay: Fluorescent (FLIPR) assay for CaV2.2 channels using potassium depolarization to induce channel opening
# Type: cell-based
# Details: 3 μM compound; 30 mM KCl assay buffer (inactivated channel state); HEK293 cells stably expressing human CaV2.2; read-out: Activity Category: %-Inhib (CaV2.2) @3 μM @30 mM KCl
# From the text: In the process, the Ca^2+ influx is quantified in the FLIPR assay with the aid of a Ca^2+-sensitive dye (type Fluo-4, Molecular Probes Europe BV, Leiden, the Netherlands) in a fluorescent imaging plate reader (FLIPR 3, Molecular Devices, Sunnyvale, USA), as described hereinafter.
# Human CaV2.2 channels were stably expressed in HEK293 cells together with alpha2-delta and beta subunits of voltage gated calcium channels. In addition, an inwardly rectifying potassium channel (Kir2.3) was stably expressed in these cells to augment control of the cell membrane potential by the concentration of extracellular potassium ions. Raise of the extracellular potassium concentration leads to depolarization of the membrane potential and thus regulates the voltage dependent state of CaV2.2 channels. For preparation, cells were seeded in black poly-D-lysine coated 96-well plates (Becton Dickinson, Biocoat 4640) in 100 μL medium [500 mL DMEM/F-12 plus Glutamax (Invitrogen 31331-093) plus 5.5 mL MEM NEAA 100× (Invitrogen 11140-035) plus 50 mL FBS decomplemented (Invitrogen 10270-106) plus 200 μg/mL Geneticin (Invitrogen 10131-027) plus 50 μg/mL Hygromycin B (Invitrogen 10687-010) plus 2 μg/mL Blasticidin (anti-bl5b Invivo-Gen) plus 0.2 μg/mL Puromycin (A 11138-03)] at a cell density of 30.000 cells per well. Plates were incubated at 37° C. (5% CO2) for 20 to 23 h. On the day of experiment medium was discarded and cells were loaded with Fluo 4 by addition of 100 μL of basic assay buffer (10 mM HEPES, 1 mM KCl, 149 mM NaCl, 0.8 mM CaCl2, 1.7 mM MgCl2, 10 mM Glucose, 0.1% BSA. pH 7.4) containing 2 μM Fluo 4 (Molecular Probes; F-14201), 0.01% pluronic acid (Molecular Probes; P-6866) and 2.5 mM probenecid (Molecular Probes; P36400). Cells were incubated in the dark at 25° C. for 60 min. Then dye containing buffer was discarded and 100 μL basic (1 mM KCl) or alternative (30 mM KCl) assay buffer was added. The alternative assay buffer contained altered concentrations of KCl (30 mM) and NaCl (120 mM) and was used in order to promote the inactivated channel state. After that 25 μL of basic or alternative assay buffer with or without test compound were added and cells were incubated again in the dark at 25° C. for 15 min. Fluorescence intensity was measured on a FLIPR 3 instrument (Molecular Devices Corp., Sunnyvale, Calif.) with excitation at 480 nm and emission at 535 nm. After continuously reading fluorescence for 30 sec, 50 μL of basic assay buffer containing 210 mM KCl (NaCl omitted) were added for depolarization. Peak fluorescent signal intensity was determined and the amplitude of the peak signal, normalized to base line, was used to measure channel inhibition by test compounds.
# T1 sequence (Q00975 whole entry): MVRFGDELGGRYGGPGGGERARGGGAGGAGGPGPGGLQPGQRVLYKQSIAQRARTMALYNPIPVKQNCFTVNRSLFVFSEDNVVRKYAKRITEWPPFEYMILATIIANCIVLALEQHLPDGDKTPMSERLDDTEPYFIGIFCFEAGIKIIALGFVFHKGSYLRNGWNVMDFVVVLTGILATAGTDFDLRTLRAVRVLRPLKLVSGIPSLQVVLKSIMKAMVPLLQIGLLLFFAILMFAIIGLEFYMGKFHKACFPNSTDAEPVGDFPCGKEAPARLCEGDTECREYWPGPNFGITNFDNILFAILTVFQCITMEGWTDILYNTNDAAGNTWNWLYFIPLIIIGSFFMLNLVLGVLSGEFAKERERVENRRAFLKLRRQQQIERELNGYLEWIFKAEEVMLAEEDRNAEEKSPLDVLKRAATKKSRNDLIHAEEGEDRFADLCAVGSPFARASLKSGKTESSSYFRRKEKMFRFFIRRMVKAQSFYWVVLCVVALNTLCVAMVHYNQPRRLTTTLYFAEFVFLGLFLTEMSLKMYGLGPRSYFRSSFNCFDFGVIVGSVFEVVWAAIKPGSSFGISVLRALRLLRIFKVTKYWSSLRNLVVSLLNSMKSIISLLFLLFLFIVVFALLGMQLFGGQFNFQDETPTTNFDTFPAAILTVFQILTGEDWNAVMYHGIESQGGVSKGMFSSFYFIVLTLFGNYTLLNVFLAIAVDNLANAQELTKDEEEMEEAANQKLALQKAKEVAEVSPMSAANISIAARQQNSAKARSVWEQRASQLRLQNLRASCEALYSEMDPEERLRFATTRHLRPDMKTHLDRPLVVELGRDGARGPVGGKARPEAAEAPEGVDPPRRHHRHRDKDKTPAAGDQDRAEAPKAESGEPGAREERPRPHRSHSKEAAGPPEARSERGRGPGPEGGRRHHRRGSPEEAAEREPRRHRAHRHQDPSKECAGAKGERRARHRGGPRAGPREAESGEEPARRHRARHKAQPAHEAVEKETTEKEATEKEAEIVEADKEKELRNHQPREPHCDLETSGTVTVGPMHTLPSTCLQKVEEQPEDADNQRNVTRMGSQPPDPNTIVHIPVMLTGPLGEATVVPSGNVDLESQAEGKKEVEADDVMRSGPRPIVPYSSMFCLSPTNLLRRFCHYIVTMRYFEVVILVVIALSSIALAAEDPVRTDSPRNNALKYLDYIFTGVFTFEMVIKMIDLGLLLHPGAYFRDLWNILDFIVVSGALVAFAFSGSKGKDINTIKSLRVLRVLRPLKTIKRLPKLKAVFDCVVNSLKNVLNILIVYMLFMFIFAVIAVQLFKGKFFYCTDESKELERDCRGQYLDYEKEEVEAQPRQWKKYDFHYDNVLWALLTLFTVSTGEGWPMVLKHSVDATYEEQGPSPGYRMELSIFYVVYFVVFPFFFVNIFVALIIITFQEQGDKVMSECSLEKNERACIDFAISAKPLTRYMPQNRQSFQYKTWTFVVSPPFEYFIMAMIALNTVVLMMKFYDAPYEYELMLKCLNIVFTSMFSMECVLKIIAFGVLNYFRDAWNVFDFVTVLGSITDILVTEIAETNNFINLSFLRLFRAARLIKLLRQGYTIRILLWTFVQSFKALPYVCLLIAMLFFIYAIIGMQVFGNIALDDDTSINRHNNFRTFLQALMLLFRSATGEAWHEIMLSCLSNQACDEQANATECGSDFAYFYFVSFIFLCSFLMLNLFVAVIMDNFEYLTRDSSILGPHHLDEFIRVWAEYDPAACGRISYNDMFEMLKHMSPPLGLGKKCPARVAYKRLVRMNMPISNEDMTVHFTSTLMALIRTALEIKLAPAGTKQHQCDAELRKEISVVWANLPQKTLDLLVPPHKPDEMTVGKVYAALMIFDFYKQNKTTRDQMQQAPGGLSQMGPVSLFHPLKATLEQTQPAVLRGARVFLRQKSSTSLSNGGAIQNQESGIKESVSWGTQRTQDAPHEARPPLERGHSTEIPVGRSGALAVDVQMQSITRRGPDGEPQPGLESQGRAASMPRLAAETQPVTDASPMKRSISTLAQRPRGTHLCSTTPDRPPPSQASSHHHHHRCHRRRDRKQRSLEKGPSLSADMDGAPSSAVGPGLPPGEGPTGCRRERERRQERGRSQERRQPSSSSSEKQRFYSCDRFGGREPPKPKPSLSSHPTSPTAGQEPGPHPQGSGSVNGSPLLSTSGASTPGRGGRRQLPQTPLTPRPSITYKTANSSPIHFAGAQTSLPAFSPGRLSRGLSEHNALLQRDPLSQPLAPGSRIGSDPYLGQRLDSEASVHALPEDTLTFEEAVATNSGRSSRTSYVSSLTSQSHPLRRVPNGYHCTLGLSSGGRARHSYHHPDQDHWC
# T1 sequence (P54284 whole entry, further chain): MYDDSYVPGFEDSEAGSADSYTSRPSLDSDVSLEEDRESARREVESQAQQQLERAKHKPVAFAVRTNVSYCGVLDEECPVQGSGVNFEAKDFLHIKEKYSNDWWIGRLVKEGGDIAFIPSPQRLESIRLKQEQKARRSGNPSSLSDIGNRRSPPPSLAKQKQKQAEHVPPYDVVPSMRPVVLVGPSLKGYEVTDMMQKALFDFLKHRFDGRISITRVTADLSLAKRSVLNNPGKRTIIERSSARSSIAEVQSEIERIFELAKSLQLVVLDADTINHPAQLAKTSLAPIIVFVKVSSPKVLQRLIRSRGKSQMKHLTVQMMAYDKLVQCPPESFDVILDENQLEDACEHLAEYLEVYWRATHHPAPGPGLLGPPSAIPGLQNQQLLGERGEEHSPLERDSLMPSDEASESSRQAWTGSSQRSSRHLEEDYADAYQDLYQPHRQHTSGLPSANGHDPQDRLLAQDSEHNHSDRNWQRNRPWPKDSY
# T1 sequence (P54289 25-1103, further chain): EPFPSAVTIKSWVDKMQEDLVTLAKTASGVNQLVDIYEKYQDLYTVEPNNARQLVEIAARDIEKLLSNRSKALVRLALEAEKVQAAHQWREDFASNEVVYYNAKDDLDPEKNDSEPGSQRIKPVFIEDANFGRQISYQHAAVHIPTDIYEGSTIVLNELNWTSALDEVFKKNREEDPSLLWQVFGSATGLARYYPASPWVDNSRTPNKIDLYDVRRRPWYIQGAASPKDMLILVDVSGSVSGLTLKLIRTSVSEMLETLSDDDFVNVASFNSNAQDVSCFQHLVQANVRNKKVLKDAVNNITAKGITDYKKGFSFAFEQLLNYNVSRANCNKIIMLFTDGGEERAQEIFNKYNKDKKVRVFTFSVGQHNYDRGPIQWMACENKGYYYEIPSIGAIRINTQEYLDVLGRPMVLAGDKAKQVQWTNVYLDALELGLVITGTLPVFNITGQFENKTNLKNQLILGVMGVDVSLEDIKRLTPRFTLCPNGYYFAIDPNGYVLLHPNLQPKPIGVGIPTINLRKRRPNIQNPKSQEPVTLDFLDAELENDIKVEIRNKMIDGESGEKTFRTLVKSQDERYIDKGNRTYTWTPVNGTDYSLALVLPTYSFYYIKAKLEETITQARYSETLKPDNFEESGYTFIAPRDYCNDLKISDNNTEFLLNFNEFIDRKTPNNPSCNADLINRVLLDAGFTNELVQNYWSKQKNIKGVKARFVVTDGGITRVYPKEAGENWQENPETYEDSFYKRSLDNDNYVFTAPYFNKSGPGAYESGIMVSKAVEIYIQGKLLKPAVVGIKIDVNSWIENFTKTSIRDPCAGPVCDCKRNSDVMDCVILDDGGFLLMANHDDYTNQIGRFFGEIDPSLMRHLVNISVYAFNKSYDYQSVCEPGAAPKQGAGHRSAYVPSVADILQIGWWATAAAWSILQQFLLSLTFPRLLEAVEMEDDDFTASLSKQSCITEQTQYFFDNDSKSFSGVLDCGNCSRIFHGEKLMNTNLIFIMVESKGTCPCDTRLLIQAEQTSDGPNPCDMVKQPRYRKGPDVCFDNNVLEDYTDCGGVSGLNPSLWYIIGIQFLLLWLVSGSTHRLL
row,SMILES,inhibition at 3 µM
1,"Cc1c(-c2ccc(Cl)cc2)c(C(=O)N2CC(O)C2)n(C2CC2)c1C(F)(F)F [Example 025, [3-(4-Chlorophenyl)-1-cyclopropyl-4-methyl-5-(trifluoromethyl)-1H-pyrrol-2-yl]-(3-hydroxy-azetidin-1-yl)-methanone]",75 to 95%
2,"O=C(c1c(-c2ccc(Cl)cc2)cc(C(F)(F)F)n1C1CC1)N1CC(O)C1 [Example 026, [3-(4-Chlorophenyl)-1-cyclopropyl-5-(trifluoromethyl)-1H-pyrrol-2-yl]-(3-hydroxy-azetidin-1-yl)-methanone]",40 to 75%
3,"Cc1noc(C2CCN(C(=O)c3c(-c4ccc(Cl)cc4)c(C)c(C(F)(F)F)n3C3CC3)CC2)n1 [Example 027, [3-(4-Chlorophenyl)-1-cyclopropyl-4-methyl-5-(trifluoromethyl)-1H-pyrrol-2-yl]-[4-(3-methyl-[1,2,4]oxadiazol-5-yl)-piperidin-1-yl]-methanone]",75 to 95%
4,"Cc1noc(C2CCN(C(=O)c3c(-c4ccc(Cl)cc4F)c(C)c(C(F)(F)F)n3C3CC3)CC2)n1 [Example 028, [3-(4-Chloro-2-fluoro-phenyl)-1-cyclopropyl-4-methyl-5-(trifluoromethyl)-1H-pyrrol-2-yl]-[4-(3-methyl-[1,2,4]oxadiazol-5-yl)-piperidin-1-yl]-methanone]",75 to 95%
5,"Cc1noc(C2CCN(C(=O)c3c(-c4ccc(Cl)cc4)cc(C(F)(F)F)n3C3CC3)CC2)n1 [Example 029, [3-(4-Chlorophenyl)-1-cyclopropyl-5-(trifluoromethyl)-1H-pyrrol-2-yl]-[4-(3-methyl-[1,2,4]oxadiazol-5-yl)-piperidin-1-yl]-methanone]",75 to 95%
6,"Cc1c(-c2ccc(Cl)cc2)c(C(=O)N2CCOC(C)(C)C2)n(C2CC2)c1C(F)(F)F [Example 032, [3-(4-Chlorophenyl)-1-cyclopropyl-4-methyl-5-(trifluoromethyl)-1H-pyrrol-2-yl]-(2,2-dimethyl-morpholin-4-yl)-methanone]",> 95%
7,"Cc1c(-c2ccc(Cl)cc2F)c(C(=O)N2CCOC(C)(C)C2)n(C2CC2)c1C(F)(F)F [Example 033, [3-(4-Chloro-2-fluoro-phenyl)-1-cyclopropyl-4-methyl-5-(trifluoromethyl)-1H-pyrrol-2-yl]-(2,2-dimethyl-morpholin-4-yl)-methanone]",75 to 95%
8,"CC1(C)CN(C(=O)c2c(-c3ccc(Cl)cc3)cc(C(F)(F)F)n2C2CC2)CCO1 [Example 034, [3-(4-Chlorophenyl)-1-cyclopropyl-5-(trifluoromethyl)-1H-pyrrol-2-yl]-(2,2-dimethyl-morpholin-4-yl)-methanone]",75 to 95%
9,"CN(CC(C)(C)C)C(=O)c1c(-c2ccc(Cl)cc2)cc(C(F)(F)F)n1C1CC1 [Example 035, 3-(4-Chlorophenyl)-1-cyclopropyl-N-(2,2-dimethyl-propyl)-N-methyl-5-(trifluoromethyl)-1H-pyrrole-2-carboxylic acid amide]",40 to 75%
10,"CN(CC(C)(C)CO)C(=O)c1c(-c2ccc(Cl)cc2)cc(C(F)(F)F)n1C1CC1 [Example 036, 3-(4-Chlorophenyl)-1-cyclopropyl-N-(3-hydroxy-2,2-dimethyl-propyl)-N-methyl-5-(trifluoromethyl)-1H-pyrrole-2-carboxylic acid amide]",75 to 95%
11,"CN(CCS(C)(=O)=O)C(=O)c1c(-c2ccc(Cl)cc2)cc(C(F)(F)F)n1C1CC1 [Example 037, 3-(4-Chlorophenyl)-1-cyclopropyl-N-methyl-N-(2-methylsulfonyl-ethyl)-5-(trifluoromethyl)-1H-pyrrole-2-carboxylic acid amide]",40 to 75%
12,"O=C(c1c(-c2ccc(Cl)cc2)cc(C(F)(F)F)n1C1CC1)N1CCOCC1 [Example 038, [3-(4-Chlorophenyl)-1-cyclopropyl-5-(trifluoromethyl)-1H-pyrrol-2-yl]-morpholin-4-yl-methanone]",40 to 75%
13,"Cc1c(-c2ccc(Cl)cc2)c(C(=O)N(C)CC(C)(C)C)n(C2CC2)c1C(F)(F)F [Example 039, 3-(4-Chlorophenyl)-1-cyclopropyl-N-(2,2-dimethyl-propyl)-N,4-dimethyl-5-(trifluoromethyl)-1H-pyrrole-2-carboxylic acid amide]",75 to 95%
14,"Cc1c(-c2ccc(Cl)cc2)c(C(=O)N(C)CC(C)(C)CO)n(C2CC2)c1C(F)(F)F [Example 040, 3-(4-Chlorophenyl)-1-cyclopropyl-N-(3-hydroxy-2,2-dimethyl-propyl)-N,4-dimethyl-5-(trifluoromethyl)-1H-pyrrole-2-carboxylic acid amide]",75 to 95%
15,"Cc1c(-c2ccc(Cl)cc2)c(C(=O)N(C)CCS(C)(=O)=O)n(C2CC2)c1C(F)(F)F [Example 041, 3-(4-Chlorophenyl)-1-cyclopropyl-N,4-dimethyl-N-(2-methylsulfonyl-ethyl)-5-(trifluoromethyl)-1H-pyrrole-2-carboxylic acid amide]",75 to 95%
16,"Cc1c(-c2ccc(Cl)cc2)c(C(=O)N2CCOC(C)(C)C2)n(C2CCC2)c1C(F)(F)F [Example 042, [3-(4-Chlorophenyl)-1-cyclobutyl-4-methyl-5-(trifluoromethyl)-1H-pyrrol-2-yl]-(2,2-dimethyl-morpholin-4-yl)-methanone]",75 to 95%
17,"Cc1c(-c2ccc(Cl)cc2)c(C(=O)N2CCOCC2)n(C2CC2)c1C(F)(F)F [Example 043, [3-(4-Chlorophenyl)-1-cyclopropyl-4-methyl-5-(trifluoromethyl)-1H-pyrrol-2-yl]-morpholin-4-yl-methanone]",75 to 95%
18,"Cc1c(-c2ccc(Cl)cc2)c(C(=O)N2CCS(=O)(=O)C(C)(C)C2)n(C2CC2)c1C(F)(F)F [Example 044, [3-(4-Chlorophenyl)-1-cyclopropyl-4-methyl-5-(trifluoromethyl)-1H-pyrrol-2-yl]-(2,2-dimethyl-1,1-dioxo-[1,4]thiazinan-4-yl)-methanone]",75 to 95%
19,"CC(C)Cn1c(C(F)(F)F)cc(-c2ccc(F)cc2)c1C(=O)N1CCOC(C)(C)C1 [Example 045, (2,2-Dimethyl-morpholin-4-yl)-[3-(4-fluorophenyl)-1-(2-methyl-propyl)-5-(trifluoromethyl)-1H-pyrrol-2-yl]-methanone]",75 to 95%
20,"CC(C)Cn1c(C(F)(F)F)cc(-c2ccc(F)cc2)c1C(=O)N(C)C1CCOCC1 [Example 046, 3-(4-Fluorophenyl)-N-methyl-1-(2-methyl-propyl)-N-tetrahydro-pyran-4-yl-5-(trifluoromethyl)-1H-pyrrole-2-carboxylic acid amide]",> 95%
21,"Cc1cc(CN(C)C(=O)c2c(-c3ccc(F)cc3)cc(C(F)(F)F)n2CC(C)C)no1 [Example 047, 3-(4-Fluorophenyl)-N-methyl-N-[(5-methyl-isoxazol-3-yl)-methyl]-1-(2-methyl-propyl)-5-(trifluoromethyl)-1H-pyrrole-2-carboxylic acid amide]",> 95%
22,"Cc1c(-c2ccc(Cl)cc2)c(C(=O)N(C)Cc2ccncn2)n(CC(C)C)c1C(F)(F)F [Example 048, 3-(4-Chlorophenyl)-N,4-dimethyl-1-(2-methyl-propyl)-N-(pyrimidin-4-yl-methyl)-5-(trifluoromethyl)-1H-pyrrole-2-carboxylic acid amide]",> 95%
23,"Cc1cnc(CN(C)C(=O)c2c(-c3ccc(F)cc3)cc(C(F)(F)F)n2CC(C)C)cn1 [Example 049, 3-(4-Fluorophenyl)-N-methyl-1-(2-methyl-propyl)-N-[(5-methyl-pyrazin-2-yl)-methyl]-5-(trifluoromethyl)-1H-pyrrole-2-carboxylic acid amide]",> 95%
24,"CC(C)Cn1c(C(F)(F)F)cc(-c2ccc(F)cc2)c1C(=O)N(C)CCS(C)(=O)=O [Example 050, 3-(4-Fluorophenyl)-N-methyl-1-(2-methyl-propyl)-N-(2-methylsulfonyl-ethyl)-5-(trifluoromethyl)-1H-pyrrole-2-carboxylic acid amide]",75 to 95%
